Converted amounts (≈) assume the structure as drawn.
Columns and labels:
[1] = tested on: Mycobacterium tuberculosis; test: Antitubercular activity against Mycobacterium tuberculosis H37Ra assessed as reduction in microbial growth incubated for 5 days by resazurin microtiter assay; format: functional; conditions: 120 h, time 5 day
[2] = Selectivity index, ratio of CC50 for cytotoxicity against human THP-1 cells to MIC90 for antitubercular activity against Mycobacterium tuberculosis H37Ra; format: toxicity, cell-based; conditions: read-out: Selectivity Index
[3] = Cytotoxicity against human THP-1 cells assessed as reduction in cell viability incubated for 48 hrs by resazurin assay; format: toxicity, cell-based
[4] = MRT in Sprague-Dawley rat at 50 mg/kg, po measured for 5 to 1440 mins by LC-MS/MS analysis; format: ADME, organism-based; conditions: in vivo, time 5-1440 min
[5] = Apparent volume of distribution in Sprague-Dawley rat at 50 mg/kg, po measured for 5 to 1440 mins by LC-MS/MS analysis; format: ADME, organism-based; conditions: in vivo, time 5-1440 min
[6] = Stability of compound in rat plasma assessed as remaining compound measured upto 120 mins by UPLC analysis; format: ADME, cell-free; conditions: read-out: Stability
[7] = Half life in Sprague-Dawley rat at 50 mg/kg, po measured for 5 to 1440 mins by LC-MS/MS analysis; format: ADME, organism-based; conditions: in vivo, time 5-1440 min
[8] = Stability of compound in simulated gastric fluid assessed as remaining compound at pH 1.2 measured upto 120 mins by UPLC analysis; format: ADME; conditions: read-out: Stability
[9] = Tmax in Sprague-Dawley rat at 50 mg/kg, po measured for 5 to 1440 mins by LC-MS/MS analysis; format: ADME, organism-based; conditions: in vivo, time 5-1440 min
[10] = Stability of compound in simulated physiological fluid assessed as remaining compound at pH 7.4 measured upto 120 mins by UPLC analysis; format: ADME; conditions: read-out: Stability
[11] = Cmax in Sprague-Dawley rat at 50 mg/kg, po measured for 5 to 1440 mins by LC-MS/MS analysis; format: ADME, organism-based; conditions: in vivo, time 5-1440 min
[12] = Stability of compound in simulated intestinal fluid assessed as remaining compound at pH 6.8 measured upto 120 mins by UPLC analysis; format: ADME; conditions: read-out: Stability
[13] = tested on: Mycobacterium tuberculosis; test: Antitubercular activity against Mycobacterium tuberculosis H37Rv assessed as reduction in microbial growth by BACTEC 460-radiometric assay; format: functional
[14] = tested on: Mycobacterium tuberculosis; test: Antitubercular activity against Mycobacterium tuberculosis H37Rv assessed as reduction in microbial growth by microplate alamar blue assay; format: functional
[15] = tested on: Mycobacterium tuberculosis; test: Antitubercular activity against Mycobacterium tuberculosis H37Ra assessed as reduction in microbial growth at 2 ug/ml incubated for 5 days by resazurin microtiter assay relative to control; format: functional; conditions: 120 h, time 5 day
[16] = tested on: Mycobacterium tuberculosis; test: Antitubercular activity against Mycobacterium tuberculosis H37Ra assessed as reduction in microbial growth at 6 ug/ml incubated for 5 days by resazurin microtiter assay relative to control; format: functional; conditions: 120 h, time 5 day

SMILES	MIC90 [1]	other results
CC1=C(C(=O)NCc2cn(-c3ccc(C)cc3)nn2)C(c2ccc(Cl)cc2)C2=C(CC(C)(C)CC2=O)N1 (stereo not given)	6.44 µg/mL	selectivity ratio [2]: 6.88; CC50 at 48 h [3]: 44.3 µg/mL (≈ 85.9 µM)
CC1=C(C(=O)NCc2cn(Cc3ccccc3)nn2)C(c2ccccc2)C2=C(CC(C)(C)CC2=O)N1 (stereo not given)	> 25 µg/mL	
COc1cc(C2C(C(=O)NCc3cn(-c4ccccc4)nn3)=C(C)NC3=C2C(=O)CC(C)(C)C3)cc(OC)c1OC (stereo not given)	> 25 µg/mL	
COc1ccc(-n2cc(CNC(=O)C3=C(C)NC4=C(C(=O)CC(C)(C)C4)C3c3cccc(Cl)c3)nn2)cc1 (stereo not given)	> 25 µg/mL	
CC1=C(C(=O)NCc2cn(-c3ccc(F)cc3)nn2)C(c2ccc(Cl)cc2)C2=C(CC(C)(C)CC2=O)N1 (stereo not given)	25.9 µg/mL	
COc1cc(C2C(C(=O)NCc3cn(-c4cccc(C(F)(F)F)c4)nn3)=C(C)NC3=C2C(=O)CC(C)(C)C3)cc(OC)c1OC (stereo not given)	> 25 µg/mL	
COc1ccc(C2C(C(=O)NCc3cn(-c4cccc(C(F)(F)F)c4)nn3)=C(C)NC3=C2C(=O)CC(C)(C)C3)cc1 (stereo not given)	> 25 µg/mL	
CC1=C(C(=O)NCc2cn(-c3ccccc3)nn2)C(c2ccccc2)C2=C(CC(C)(C)CC2=O)N1 (stereo not given)	> 25 µg/mL	
CC1=C(C(=O)NCc2cn(-c3ccc(C)cc3)nn2)C(c2ccccc2)C2=C(CC(C)(C)CC2=O)N1 (stereo not given)	24.1 µg/mL	
COc1cc(C2C(C(=O)NCc3cn(-c4ccc(F)cc4)nn3)=C(C)NC3=C2C(=O)CC(C)(C)C3)cc(OC)c1OC (stereo not given)	> 25 µg/mL	
CC1=C(C(=O)NCc2cn(-c3ccc(F)cc3)nn2)C(c2cccs2)C2=C(CC(C)(C)CC2=O)N1 (stereo not given)	> 25 µg/mL	
COc1ccc(-n2cc(CNC(=O)C3=C(C)NC4=C(C(=O)CC(C)(C)C4)C3c3cccs3)nn2)cc1 (stereo not given)	> 25 µg/mL	
CC1=C(C(=O)NCc2cn(-c3ccccc3)nn2)C(c2ccc(F)cc2)C2=C(CC(C)(C)CC2=O)N1 (stereo not given)	12.1 µg/mL	
CC1=C(C(=O)NCc2cn(-c3ccc(Cl)cc3)nn2)C(c2scnc2C)C2=C(CC(C)(C)CC2=O)N1 (stereo not given)	> 25 µg/mL	
CC1=C(C(=O)NCc2cn(-c3ccc(C)cc3)nn2)C(c2ccc(F)cc2)C2=C(CC(C)(C)CC2=O)N1 (stereo not given)	6.24 µg/mL	MRT [4]: 6.69 h; Vd(app) [5]: 0.02778 L/kg; remaining at 2 h [6]: ≥ 70%; half-life [7]: 4.16 h; remaining at 2 h [8]: ≥ 70%; Tmax [9]: 1.33 h; remaining at 2 h [10]: ≥ 70%; Cmax [11]: 1400 ng/mL; selectivity ratio [2]: > 16; CC50 at 48 h [3]: > 99.8 µg/mL; remaining at 2 h [12]: ≥ 70%
CC1=C(C(=O)NCc2cn(-c3ccc(C)cc3)nn2)C(c2scnc2C)C2=C(CC(C)(C)CC2=O)N1 (stereo not given)	> 25 µg/mL	
COc1ccc(-n2cc(CNC(=O)C3=C(C)NC4=C(C(=O)CC(C)(C)C4)C3c3ccc(Cl)cc3)nn2)cc1 (stereo not given)	6.64 µg/mL	selectivity ratio [2]: 9.73; CC50 at 48 h [3]: 64.6 µg/mL (≈ 121 µM)
COc1ccc(C2C(C(=O)NCc3cn(-c4ccccc4)nn3)=C(C)NC3=C2C(=O)CC(C)(C)C3)cc1 (stereo not given)	> 25 µg/mL	

SMILES	MIC90 [1]	other results
COC(=O)C1=C(C)NC(C)=C(C2=NN(C(C)=O)C(c3ccccc3)C2)C1c1cccc([N+](=O)[O-])c1 (stereo not given)		MIC [13]: > 12.5 µg/mL
CC1=C(C(=O)NCc2cn(-c3ccccc3)nn2)C(c2ccc(Cl)cc2)C2=C(CC(C)(C)CC2=O)N1 (stereo not given)	6.26 µg/mL	selectivity ratio [2]: 10.6; CC50 at 48 h [3]: 66.4 µg/mL (≈ 132 µM)
CC1=C(C(=O)NCc2cn(Cc3ccccc3)nn2)C(c2ccc(Cl)cc2)C2=C(CC(C)(C)CC2=O)N1 (stereo not given)	> 25 µg/mL	
CC1=C(C(=O)NCc2cn(-c3ccc(Cl)cc3)nn2)C(c2ccccc2)C2=C(CC(C)(C)CC2=O)N1 (stereo not given)	25.1 µg/mL	
CC1=C(C(=O)NCc2cn(-c3ccc(C)cc3)nn2)C(c2ccc(Cl)cc2)C2=C(CCCC2=O)N1 (stereo not given)	> 25 µg/mL	
COc1ccc(-n2cc(CNC(=O)C3=C(C)NC4=C(C(=O)CC(C)(C)C4)C3c3ccc(F)cc3)nn2)cc1 (stereo not given)	6.44 µg/mL	selectivity ratio [2]: > 16; CC50 at 48 h [3]: > 103 µg/mL
CC1=C(C(=O)NCc2cn(-c3ccccc3C(F)(F)F)nn2)C(c2ccc(Cl)cc2)C2=C(CC(C)(C)CC2=O)N1 (stereo not given)	> 25 µg/mL	
COc1ccc(-n2cc(CNC(=O)C3=C(C)NC4=C(C(=O)CC(C)(C)C4)C3c3ccccn3)nn2)cc1 (stereo not given)	> 25 µg/mL	
CC1=C(C(=O)NCc2cn(Cc3ccccc3)nn2)C(c2scnc2C)C2=C(CC(C)(C)CC2=O)N1 (stereo not given)	> 25 µg/mL	
CC1=C(C(=O)NCc2cn(-c3ccccc3)nn2)C(c2scnc2C)C2=C(CC(C)(C)CC2=O)N1 (stereo not given)	> 25 µg/mL	
COc1cc(-n2cc(CNC(=O)C3=C(C)NC4=C(C(=O)CC(C)(C)C4)C3c3ccc(Cl)cc3)nn2)cc(OC)c1OC (stereo not given)	> 25 µg/mL	
COc1ccc(-n2cc(CNC(=O)C3=C(C)NC4=C(C(=O)CC(C)(C)C4)C3c3ccccc3Cl)nn2)cc1 (stereo not given)	13.3 µg/mL	
CC1=C(C(=O)NCc2cn(-c3ccc(C)cc3)nn2)C(c2ccc(F)cc2)C2=C(CCCC2=O)N1 (stereo not given)	11.8 µg/mL	
CC1=C(C(=O)NCc2cn(-c3ccccc3)nn2)C(c2cccs2)C2=C(CC(C)(C)CC2=O)N1 (stereo not given)	> 25 µg/mL	
CCCCc1nc(Cl)c(C2C(C(=O)Nc3ccc(F)cc3)=C(C)NC(C)=C2C(=O)Nc2ccc(F)cc2)n1Cc1ccccc1		MIC [14]: 0.02 µg/mL
CC1=C(C(=O)NCc2cn(-c3ccc(C(C)C)cc3)nn2)C(c2ccc(Cl)cc2)C2=C(CC(C)(C)CC2=O)N1 (stereo not given)	27.2 µg/mL	
CO[C@H]1/C=C/O[C@@]2(C)Oc3c(C)c(O)c4c(O)c(c(/C=N/N5CCN(C)CC5)c(O)c4c3C2=O)NC(=O)/C(C)=C\C=C\[C@H](C)[C@H](O)[C@@H](C)[C@@H](O)[C@@H](C)[C@H](OC(C)=O)[C@@H]1C [RIFAMPIN]		inhibition at 2 µg/mL [15]: > 99%
CN[C@@H]1[C@H](O[C@H]2[C@H](O[C@H]3[C@H](O)[C@@H](O)[C@H](N=C(N)N)[C@@H](O)[C@@H]3N=C(N)N)O[C@@H](C)[C@]2(O)C=O)O[C@@H](CO)[C@H](O)[C@H]1O [STREPTOMYCIN]		inhibition at 6 µg/mL [16]: > 99%

Reference: ChEMBL document CHEMBL5576152, “Antitubercular evaluation of dihydropyridine-triazole conjugates: design, synthesis, in vitro screening, SAR and in silico ADME predictions” (RSC Med Chem, 2024)
